{"source": "ChEMBL document CHEMBL4804286", "about": "“3-amino-4-(4-(4 (dimethylcarbamoyl) phenyl)-1,4-diazepan-1-yl) thieno [2,3-b] pyridine-2-carboxamide for use in cancer therapy and formulations comprising the same” (2020)", "key": {"[1]": {"biological_target": "Serine/threonine-protein kinase PLK4 (Homo sapiens) (UniProt O00444)", "assay": "Inhibition of human PLK4 assessed as percent of control at 2000 nM by KINOMEscan assay relative to control", "set-up": "scale not given: the % may be the effect or the level left"}, "[2]": {"biological_target": "Phosphatidylinositol 4-phosphate 3-kinase C2 domain-containing subunit beta (Homo sapiens) (UniProt O00750)", "assay": "Inhibition of human PIK3C2B assessed as percent of control at 2000 nM by KINOMEscan assay relative to control", "set-up": "scale not given: the % may be the effect or the level left"}, "[3]": {"biological_target": "LIM domain kinase 1 (Homo sapiens) (UniProt P53667)", "assay": "Inhibition of human LIMK1 assessed as percent of control at 2000 nM by KINOMEscan assay relative to control", "set-up": "scale not given: the % may be the effect or the level left"}, "[4]": {"tested_on": "Phosphatidylinositol 4,5-bisphosphate 3-kinase catalytic subunit alpha isoform (Homo sapiens), P42336 [I800L]", "assay": "Inhibition of human PIK3CA I800L mutant assessed as percent of control at 2000 nM by KINOMEscan assay relative to control", "set-up": "scale not given: the % may be the effect or the level left"}, "[5]": {"tested_on": "Myc-CaP", "assay": "Antitumor activity against murine castration-resistant Myc-CaP cells xenografted in male FVB mouse assessed as suppression of tumor weight in presence of enzalutamide", "format": "functional"}, "[6]": {"biological_target": "Calcium/calmodulin-dependent protein kinase type 1G (Homo sapiens) (UniProt Q96NX5)", "assay": "Inhibition of human CAMK1G assessed as percent of control at 2000 nM by KINOMEscan assay relative to control", "set-up": "scale not given: the % may be the effect or the level left"}, "[7]": {"biological_target": "Cyclin-G-associated kinase (Homo sapiens) (UniProt O14976)", "sequence (O14976 whole entry)": "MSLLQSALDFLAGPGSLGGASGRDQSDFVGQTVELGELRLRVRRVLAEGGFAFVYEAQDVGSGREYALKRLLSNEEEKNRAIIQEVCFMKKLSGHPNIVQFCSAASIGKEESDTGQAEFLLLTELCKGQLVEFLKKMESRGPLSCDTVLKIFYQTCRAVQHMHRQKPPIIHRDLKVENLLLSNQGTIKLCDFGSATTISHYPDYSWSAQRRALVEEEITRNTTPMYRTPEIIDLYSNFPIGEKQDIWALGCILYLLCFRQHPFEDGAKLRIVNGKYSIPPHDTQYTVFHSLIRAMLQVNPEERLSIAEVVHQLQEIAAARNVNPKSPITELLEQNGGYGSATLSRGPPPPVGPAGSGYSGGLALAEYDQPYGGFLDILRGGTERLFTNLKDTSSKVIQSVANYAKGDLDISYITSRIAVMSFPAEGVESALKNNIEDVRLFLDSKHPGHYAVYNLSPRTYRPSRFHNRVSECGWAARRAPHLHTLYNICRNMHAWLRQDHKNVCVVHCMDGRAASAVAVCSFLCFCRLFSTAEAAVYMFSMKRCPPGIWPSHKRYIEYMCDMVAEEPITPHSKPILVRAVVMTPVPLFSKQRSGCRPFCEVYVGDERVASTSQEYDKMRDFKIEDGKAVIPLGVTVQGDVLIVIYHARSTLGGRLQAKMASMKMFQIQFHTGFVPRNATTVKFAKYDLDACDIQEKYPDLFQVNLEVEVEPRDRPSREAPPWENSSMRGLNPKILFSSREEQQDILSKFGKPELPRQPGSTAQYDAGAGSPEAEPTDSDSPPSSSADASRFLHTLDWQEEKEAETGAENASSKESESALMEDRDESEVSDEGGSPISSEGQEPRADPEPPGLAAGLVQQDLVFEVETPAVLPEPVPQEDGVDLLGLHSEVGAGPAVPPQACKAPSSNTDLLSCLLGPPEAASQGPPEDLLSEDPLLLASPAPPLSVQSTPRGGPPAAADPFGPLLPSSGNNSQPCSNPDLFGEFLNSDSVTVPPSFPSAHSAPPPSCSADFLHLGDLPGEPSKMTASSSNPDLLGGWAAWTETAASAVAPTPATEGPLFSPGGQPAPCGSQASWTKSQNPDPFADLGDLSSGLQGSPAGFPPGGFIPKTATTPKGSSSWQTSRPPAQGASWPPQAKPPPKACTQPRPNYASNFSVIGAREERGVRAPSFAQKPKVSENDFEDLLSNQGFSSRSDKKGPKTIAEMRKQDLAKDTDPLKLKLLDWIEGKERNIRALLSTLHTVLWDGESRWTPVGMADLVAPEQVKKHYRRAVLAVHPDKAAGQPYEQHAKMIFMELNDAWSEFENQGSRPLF", "assay": "Inhibition of human GAK assessed as percent of control at 2000 nM by KINOMEscan assay relative to control", "set-up": "scale not given: the % may be the effect or the level left"}, "[8]": {"biological_target": "Serine/threonine-protein kinase WNK3 (Homo sapiens) (UniProt Q9BYP7)", "sequence (Q9BYP7 whole entry)": "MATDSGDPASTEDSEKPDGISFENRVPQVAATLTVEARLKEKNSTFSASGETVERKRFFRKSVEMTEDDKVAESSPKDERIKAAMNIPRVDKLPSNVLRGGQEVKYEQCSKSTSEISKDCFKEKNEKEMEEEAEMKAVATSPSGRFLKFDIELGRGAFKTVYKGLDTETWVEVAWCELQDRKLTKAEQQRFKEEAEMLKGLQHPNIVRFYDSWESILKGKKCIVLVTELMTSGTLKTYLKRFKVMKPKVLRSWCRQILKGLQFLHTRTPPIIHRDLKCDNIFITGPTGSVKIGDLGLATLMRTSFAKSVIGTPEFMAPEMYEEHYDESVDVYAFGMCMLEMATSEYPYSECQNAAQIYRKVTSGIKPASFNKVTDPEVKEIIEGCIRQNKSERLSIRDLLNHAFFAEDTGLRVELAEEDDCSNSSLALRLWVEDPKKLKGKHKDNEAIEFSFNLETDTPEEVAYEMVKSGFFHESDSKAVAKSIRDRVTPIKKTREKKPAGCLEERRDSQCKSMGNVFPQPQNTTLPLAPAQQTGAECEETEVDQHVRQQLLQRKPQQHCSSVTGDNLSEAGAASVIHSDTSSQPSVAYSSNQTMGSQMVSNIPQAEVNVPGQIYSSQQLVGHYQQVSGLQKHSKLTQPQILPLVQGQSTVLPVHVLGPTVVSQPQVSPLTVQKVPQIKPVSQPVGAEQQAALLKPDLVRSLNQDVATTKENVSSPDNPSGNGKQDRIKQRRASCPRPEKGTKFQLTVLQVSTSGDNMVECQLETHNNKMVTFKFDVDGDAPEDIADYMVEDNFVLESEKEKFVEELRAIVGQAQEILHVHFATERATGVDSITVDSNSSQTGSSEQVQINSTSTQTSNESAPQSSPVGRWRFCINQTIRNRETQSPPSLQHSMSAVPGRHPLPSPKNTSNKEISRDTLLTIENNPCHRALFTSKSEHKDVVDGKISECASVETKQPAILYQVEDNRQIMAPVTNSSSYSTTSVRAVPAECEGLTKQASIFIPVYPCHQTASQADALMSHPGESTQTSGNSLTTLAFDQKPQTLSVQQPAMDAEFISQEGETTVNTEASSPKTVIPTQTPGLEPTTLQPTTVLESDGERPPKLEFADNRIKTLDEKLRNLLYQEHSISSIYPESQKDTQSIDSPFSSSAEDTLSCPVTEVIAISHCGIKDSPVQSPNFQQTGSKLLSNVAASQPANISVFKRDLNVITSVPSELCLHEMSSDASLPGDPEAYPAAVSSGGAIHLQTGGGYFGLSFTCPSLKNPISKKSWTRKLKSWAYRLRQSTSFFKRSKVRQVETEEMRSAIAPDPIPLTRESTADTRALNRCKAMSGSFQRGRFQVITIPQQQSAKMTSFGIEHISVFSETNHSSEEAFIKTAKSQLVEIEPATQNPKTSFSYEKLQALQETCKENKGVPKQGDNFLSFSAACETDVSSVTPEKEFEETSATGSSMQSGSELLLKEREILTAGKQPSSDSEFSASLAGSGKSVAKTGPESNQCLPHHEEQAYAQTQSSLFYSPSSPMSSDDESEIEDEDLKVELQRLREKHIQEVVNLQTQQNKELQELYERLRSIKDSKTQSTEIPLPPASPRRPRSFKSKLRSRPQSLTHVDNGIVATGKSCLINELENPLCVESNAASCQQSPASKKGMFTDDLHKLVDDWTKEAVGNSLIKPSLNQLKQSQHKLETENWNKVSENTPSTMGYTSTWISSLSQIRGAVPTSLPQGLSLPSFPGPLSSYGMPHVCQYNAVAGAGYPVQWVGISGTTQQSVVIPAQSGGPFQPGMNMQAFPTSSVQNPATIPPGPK", "assay": "Inhibition of human WNK3 assessed as percent of control at 2000 nM by KINOMEscan assay relative to control", "set-up": "scale not given: the % may be the effect or the level left"}, "[9]": {"biological_target": "Insulin receptor-related protein (Homo sapiens) (UniProt P14616)", "assay": "Inhibition of human INSRR assessed as percent of control at 2000 nM by KINOMEscan assay relative to control", "set-up": "scale not given: the % may be the effect or the level left"}, "[10]": {"biological_target": "Cyclin-dependent kinase 2 (Homo sapiens) (UniProt P24941)", "assay": "Inhibition of human CDK2 assessed as percent of control at 2000 nM by KINOMEscan assay relative to control", "set-up": "scale not given: the % may be the effect or the level left"}, "[11]": {"biological_target": "Interferon-induced, double-stranded RNA-activated protein kinase (Homo sapiens) (UniProt P19525)", "assay": "Inhibition of human PRKR assessed as percent of control at 2000 nM by KINOMEscan assay relative to control", "set-up": "scale not given: the % may be the effect or the level left"}, "[12]": {"biological_target": "Ephrin type-A receptor 1 (Homo sapiens) (UniProt P21709)", "assay": "Inhibition of human EPHA1 assessed as percent of control at 2000 nM by KINOMEscan assay relative to control", "set-up": "scale not given: the % may be the effect or the level left"}, "[13]": {"biological_target": "Mitogen-activated protein kinase kinase kinase 10 (Homo sapiens) (UniProt Q02779)", "assay": "Inhibition of human MLK2 assessed as percent of control at 2000 nM by KINOMEscan assay relative to control", "set-up": "scale not given: the % may be the effect or the level left"}, "[14]": {"tested_on": "Receptor-type tyrosine-protein kinase FLT3 (Homo sapiens), P36888 [UNDEFINED MUTATION]", "assay": "Inhibition of human FLT3 ITD/F691L double mutant assessed as percent of control at 2000 nM by KINOMEscan assay relative to control", "set-up": "scale not given: the % may be the effect or the level left"}, "[15]": {"biological_target": "Death-associated protein kinase 3 (Homo sapiens) (UniProt O43293)", "assay": "Inhibition of human DAPK3 assessed as percent of control at 2000 nM by KINOMEscan assay relative to control", "set-up": "scale not given: the % may be the effect or the level left"}, "[16]": {"biological_target": "Serine/threonine-protein kinase 32B (Homo sapiens) (UniProt Q9NY57)", "sequence (Q9NY57 whole entry)": "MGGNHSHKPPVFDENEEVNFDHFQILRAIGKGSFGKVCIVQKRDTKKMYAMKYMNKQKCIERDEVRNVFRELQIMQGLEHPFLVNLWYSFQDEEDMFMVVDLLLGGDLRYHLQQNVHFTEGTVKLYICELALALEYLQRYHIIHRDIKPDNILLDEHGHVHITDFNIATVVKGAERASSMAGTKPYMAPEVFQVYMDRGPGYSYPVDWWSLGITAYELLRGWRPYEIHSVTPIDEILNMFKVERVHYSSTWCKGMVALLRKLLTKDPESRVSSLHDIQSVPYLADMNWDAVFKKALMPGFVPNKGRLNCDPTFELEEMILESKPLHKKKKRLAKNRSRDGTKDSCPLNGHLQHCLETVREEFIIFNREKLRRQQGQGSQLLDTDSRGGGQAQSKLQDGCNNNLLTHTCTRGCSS", "assay": "Inhibition of human YANK2 assessed as percent of control at 2000 nM by KINOMEscan assay relative to control", "set-up": "scale not given: the % may be the effect or the level left"}, "[17]": {"biological_target": "Rho-associated protein kinase 1 (Homo sapiens) (UniProt Q13464)", "assay": "Inhibition of human ROCK1 assessed as percent of control at 2000 nM by KINOMEscan assay relative to control", "set-up": "scale not given: the % may be the effect or the level left"}, "[18]": {"tested_on": "Mast/stem cell growth factor receptor Kit (Homo sapiens), P10721 [V559D,T670I]", "assay": "Inhibition of human KIT V559D/T670I double mutant assessed as percent of control at 2000 nM by KINOMEscan assay relative to control", "set-up": "scale not given: the % may be the effect or the level left"}, "[19]": {"biological_target": "Dual specificity mitogen-activated protein kinase kinase 6 (Homo sapiens) (UniProt P52564)", "sequence (P52564 whole entry)": "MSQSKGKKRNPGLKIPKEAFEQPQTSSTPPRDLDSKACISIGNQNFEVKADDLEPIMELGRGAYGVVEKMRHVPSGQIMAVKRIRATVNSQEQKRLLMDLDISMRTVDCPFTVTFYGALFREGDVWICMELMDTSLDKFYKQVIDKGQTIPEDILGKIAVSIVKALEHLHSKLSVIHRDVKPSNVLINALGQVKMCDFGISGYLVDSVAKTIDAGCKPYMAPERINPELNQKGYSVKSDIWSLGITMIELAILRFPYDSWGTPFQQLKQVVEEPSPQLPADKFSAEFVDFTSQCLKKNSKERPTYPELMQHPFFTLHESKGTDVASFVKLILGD", "assay": "Inhibition of human MEK6 assessed as percent of control at 2000 nM by KINOMEscan assay relative to control", "set-up": "scale not given: the % may be the effect or the level left"}, "[20]": {"biological_target": "Serine/threonine-protein kinase PAK 6 (Homo sapiens) (UniProt Q9NQU5)", "assay": "Inhibition of human PAK6 assessed as percent of control at 2000 nM by KINOMEscan assay relative to control", "set-up": "scale not given: the % may be the effect or the level left"}, "[21]": {"biological_target": "Ephrin type-A receptor 2 (Homo sapiens) (UniProt P29317)", "assay": "Inhibition of human EPHA2 assessed as percent of control at 2000 nM by KINOMEscan assay relative to control", "set-up": "scale not given: the % may be the effect or the level left"}, "[22]": {"biological_target": "Tyrosine-protein kinase JAK1 (Homo sapiens) (UniProt P23458)", "sequence (P23458 whole entry, the tested form may be a part)": "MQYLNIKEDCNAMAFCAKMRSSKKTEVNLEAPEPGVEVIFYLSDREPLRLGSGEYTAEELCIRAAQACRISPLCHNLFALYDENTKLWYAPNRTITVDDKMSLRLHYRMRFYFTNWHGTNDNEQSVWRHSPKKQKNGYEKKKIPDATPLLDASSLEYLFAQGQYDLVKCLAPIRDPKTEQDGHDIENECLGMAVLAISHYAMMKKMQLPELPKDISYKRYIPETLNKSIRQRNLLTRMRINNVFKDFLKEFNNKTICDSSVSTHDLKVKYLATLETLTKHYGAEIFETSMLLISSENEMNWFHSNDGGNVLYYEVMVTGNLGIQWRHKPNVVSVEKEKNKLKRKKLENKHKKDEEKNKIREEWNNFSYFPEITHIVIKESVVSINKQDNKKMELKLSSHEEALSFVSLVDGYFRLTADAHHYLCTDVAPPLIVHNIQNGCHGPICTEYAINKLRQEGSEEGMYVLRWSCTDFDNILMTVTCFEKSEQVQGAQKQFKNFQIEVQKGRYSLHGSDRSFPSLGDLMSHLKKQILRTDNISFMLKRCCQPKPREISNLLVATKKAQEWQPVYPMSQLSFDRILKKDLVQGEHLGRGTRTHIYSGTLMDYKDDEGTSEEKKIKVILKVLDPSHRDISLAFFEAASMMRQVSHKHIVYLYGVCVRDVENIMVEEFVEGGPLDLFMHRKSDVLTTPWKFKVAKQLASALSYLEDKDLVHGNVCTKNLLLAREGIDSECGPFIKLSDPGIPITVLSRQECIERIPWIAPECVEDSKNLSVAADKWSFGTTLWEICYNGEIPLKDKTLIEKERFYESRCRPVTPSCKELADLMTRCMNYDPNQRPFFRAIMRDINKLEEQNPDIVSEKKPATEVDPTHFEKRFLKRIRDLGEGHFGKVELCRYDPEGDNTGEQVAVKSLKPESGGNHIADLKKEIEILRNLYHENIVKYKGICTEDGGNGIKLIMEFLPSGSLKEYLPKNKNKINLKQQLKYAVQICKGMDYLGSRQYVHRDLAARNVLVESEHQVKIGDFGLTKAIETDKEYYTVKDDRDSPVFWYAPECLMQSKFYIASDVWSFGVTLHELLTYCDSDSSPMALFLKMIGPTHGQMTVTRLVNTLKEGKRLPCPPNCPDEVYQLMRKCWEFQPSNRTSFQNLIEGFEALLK", "assay": "Inhibition of human JAK1 JH2 pseudokinase domain assessed as percent of control at 2000 nM by KINOMEscan assay relative to control", "set-up": "scale not given: the % may be the effect or the level left"}, "[23]": {"biological_target": "Serine/threonine-protein kinase TAO2 (Homo sapiens) (UniProt Q9UL54)", "assay": "Inhibition of human TAOK2 assessed as percent of control at 2000 nM by KINOMEscan assay relative to control", "set-up": "scale not given: the % may be the effect or the level left"}, "[24]": {"biological_target": "Non-receptor tyrosine-protein kinase TYK2 (Homo sapiens) (UniProt P29597)", "assay": "Inhibition of human TYK2 JH2 pseudokinase domain assessed as percent of control at 2000 nM by KINOMEscan assay relative to control", "set-up": "scale not given: the % may be the effect or the level left"}, "[25]": {"biological_target": "Serine/threonine-protein kinase PLK1 (Homo sapiens) (UniProt P53350)", "assay": "Inhibition of human PLK1 assessed as percent of control at 2000 nM by KINOMEscan assay relative to control", "set-up": "scale not given: the % may be the effect or the level left"}}, "note": "“And” between values parts separate entries of the source, which are not always exact repeats. Equal values may be shown once. The source made the active and inactive calls. No cut-off for these calls is given here."}
{"molecule": "CN(C)C(=O)c1ccc(N2CCCN(c3ccnc4sc(C(N)=O)c(N)c34)CC2)cc1", "values": [{"measurement": "Activity", "setting": "[1]", "result": "95% and 92%"}, {"measurement": "Activity", "setting": "[2]", "result": "89% and 87%"}, {"measurement": "Activity", "setting": "[3]", "result": 100, "unit": "%"}, {"measurement": "Activity", "setting": "[4]", "result": "97% and 74%"}, {"measurement": "Activity", "setting": "[5]", "result": "Active"}, {"measurement": "Activity", "setting": "[6]", "result": 99, "unit": "%"}, {"measurement": "Activity", "setting": "[7]", "result": "88% and 94%"}, {"measurement": "Activity", "setting": "[8]", "result": "97% and 100%"}, {"measurement": "Activity", "setting": "[9]", "result": "99% and 89%"}, {"measurement": "Activity", "setting": "[10]", "result": "100% and 99%"}, {"measurement": "Activity", "setting": "[11]", "result": 100, "unit": "%"}, {"measurement": "Activity", "setting": "[12]", "result": "92% and 95%"}, {"measurement": "Activity", "setting": "[13]", "result": "100% and 95%"}, {"measurement": "Activity", "setting": "[14]", "result": "95% and 75%"}, {"measurement": "Activity", "setting": "[15]", "result": "81% and 83%"}, {"measurement": "Activity", "setting": "[16]", "result": "89% and 84%"}, {"measurement": "Activity", "setting": "[17]", "result": "77% and 67%"}, {"measurement": "Activity", "setting": "[18]", "result": "100% and 96%"}, {"measurement": "Activity", "setting": "[19]", "result": "100% and 96%"}, {"measurement": "Activity", "setting": "[20]", "result": "82% and 99%"}, {"measurement": "Activity", "setting": "[21]", "result": "95% and 100%"}, {"measurement": "Activity", "setting": "[22]", "result": 89, "unit": "%"}, {"measurement": "Activity", "setting": "[23]", "result": "92% and 93%"}, {"measurement": "Activity", "setting": "[24]", "result": "73% and 59%"}, {"measurement": "Activity", "setting": "[25]", "result": "95% and 89%"}]}
